Values after ≈ are worked out from the molar mass of the structure shown. Where two headings read alike, the source gives them in different places. Each block holds one molecule with its values, some of them ahead of it.
Key:
Mycobacterium 607 = experiment: M.I.C. by Tube Dilution, Mycobacterium 607; type: cell-based; conditions: overnight at 37° C.
Pr. mirabilis A9900 = experiment: M.I.C. by Tube Dilution, Pr. mirabilis A9900; type: cell-based; conditions: Proteus mirabilis, 10^-4 dilution, overnight at 37° C.
Pr. morganii A15153 = experiment: M.I.C. by Tube Dilution, Pr. morganii A15153; type: cell-based; conditions: Morganella morganii, 10^-4 dilution, overnight at 37° C.
Sal. enteritidis A9531 = experiment: M.I.C. by Tube Dilution, Sal. enteritidis A9531; type: cell-based; conditions: Salmonella enterica, 10^-4 dilution, overnight at 37° C.
E. coli NIHJ = experiment: M.I.C. by Tube Dilution, E. coli NIHJ; type: cell-based; conditions: Escherichia coli, overnight at 37° C.
Ps. aeruginosa A9843 = experiment: M.I.C. by Tube Dilution, Ps. aeruginosa A9843; type: cell-based; conditions: Pseudomonas aeruginosa, 10^-4 dilution, overnight at 37° C.
S. aureus Russel = experiment: M.I.C. by Tube Dilution, S. aureus Russel; type: cell-based; conditions: Nutrient Broth, overnight at 37° C.; for MIC: Staphylococcus aureus
S. aureus BX1633 A9606 = experiment: M.I.C. by Tube Dilution, S. aureus BX1633 A9606; type: cell-based; conditions: Nutrient Broth, overnight at 37° C.; for MIC: Staphylococcus aureus, BX1633A9606, S. aureus BX1633 A9606
E. coli Juhl A15119 = experiment: M.I.C. by Tube Dilution, E. coli Juhl A15119; type: cell-based; conditions: Escherichia coli, JUHLA15119, 10^-4 dilution, overnight at 37° C.
[1] = Solubility in 0.1 M pH 7.0 phosphate buffer (bioassay and UV-assay); type: physicochemical; conditions: for solubility at 4 h: 0.1 m phosphate buffer, pH 7, aqueous buffer
Experimental: *Stirred at 25° C. for 4 hours in 0.1 M pH 7.0 phosphate
buffer--filtered through Milipore filter (0.45 μ)--assayed
spectroscopically against its own standard.
The test solution and the standard solution are prepared as described below.
About 10 mg. (1) of a sample is placed in a vial and mixed with 1 ml. of 0.1 M phosphate buffer (pH 7.0). The vial is stoppered, sealed with a metal cap, placed on a rotary shaker and agitated at 160 rpm for 4 hr. at 25° C. The solution is filtered through a Millipore filter (HAWP 01300, mean pore size 0.45 μm). The filtrate is diluted to use for bioassay and UV assay as follows:
About 2 mg. of the same sample is weighed precisely and dissolved in 4 ml. of 1% K2 CO3 solution^(3) (usually within one minute). The solution is diluted exactly to 50 ml. in a flask with 0.1 M pH 7.0 phosphate buffer and used for the preparation of the standard solutions for bioassay and UV-assay as follows:
(1) A 20 mg. or more sample is used when the sample is expected to be more soluble.
(2) 0.1 M pH 7.0 phosphate buffer is used as a diluent in the present test and also as a reference solution in UV-assay.
(3) It was previously confirmed that almost the same result is obtained when the sample is solubilized in DMSO (dimethylsulfoxide) and then diluted similarily with the buffer.
(4) Volume of the solution is measured precisely with an appropriate pipette or flask.
BA: Bioassay, UV: UV-assay Results given for the same compound on different lines were obtained using samples from different lots.

K. pneumoniae A15130 = experiment: M.I.C. by Tube Dilution, K. pneumoniae A15130; type: cell-based; conditions: Klebsiella pneumoniae, 10^-4 dilution, overnight at 37° C.
K. pneumoniae A9977 = experiment: M.I.C. by Tube Dilution, K. pneumoniae A9977; type: cell-based; conditions: Klebsiella pneumoniae, 10^-4 dilution, overnight at 37° C.
Str. pyogenes A9604 = experiment: M.I.C. by Tube Dilution, Str. pyogenes A9604; type: cell-based; conditions: Streptococcus pyogenes; Str. pyogenes A9604 + 5% serum; 50% Nutrient Broth - 45% Antibiotic Assay Broth; overnight at 37° C.
E. coli ATCC 8739 = experiment: M.I.C. by Tube Dilution, E. coli ATCC 8739; type: cell-based; conditions: Escherichia coli, ATCC8739, overnight at 37° C.
Ser. marcescens A20019 = experiment: M.I.C. by Tube Dilution, Ser. marcescens A20019; type: cell-based; conditions: Serratia marcescens, 10^-4 dilution, overnight at 37° C.
D. pneumoniae A9585 = experiment: M.I.C. by Tube Dilution, D. pneumoniae A9585; type: cell-based; conditions: Streptococcus pneumoniae, A9585, D. pneumoniae A9585 + 5% serum; 50% Nutrient Broth - 45% Antibiotic Assay Broth; overnight at 37° C.
S. aureus Smith A9537 = experiment: M.I.C. by Tube Dilution, S. aureus Smith A9537; type: cell-based; conditions: Staphylococcus aureus, 10^-4 dilution, overnight at 37° C.
Water solubility = type: physicochemical; conditions: sodium salt
E coli Juhl = experiment: Minimum curative dose in infected mice, E coli Juhl; type: in vivo; conditions: Mus musculus, sc; subcutaneous, mice infected with lethal dose of E coli Juhl; read-out: CD50 (minimum curative dose for 50% of the mice)
S. aureus BX-1633 = experiment: Minimum curative dose in infected mice, S. aureus BX-1633; type: in vivo; conditions: Staphylococcus aureus, BX1633, sc; subcutaneous, mice infected with lethal dose of S. aureus BX-1633; read-out: CD50 (minimum curative dose for 50% of the mice)
[2] = UV-assay, read-out: Solubility (UV)
[3] = bioassay, read-out: Solubility (BA)
[4] = 0.1 M phosphate buffer (pH 7.0), 4 hr. at 25° C., UV-assay, read-out: Solubility, UV (UV-assay)
[5] = 0.1 M phosphate buffer (pH 7.0), 4 hr. at 25° C., bioassay, read-out: Solubility, BA (bioassay)
[6] = stirred at 25° C. for 4 hours in 0.1 M pH 7.0 phosphate buffer, assayed spectroscopically against its own standard, read-out: Solubility

Structure (SMILES): CC1=C(C(=O)O)N2C(=O)C(NC(=O)CC3=C(CN)CCCC3)C2SC1 (stereo not drawn) [Example 17, 7-[α-(2-Aminomethyl-1-cyclohexenyl)acetamido]desacetoxycephalosporanic acid]
MIC (Mycobacterium 607): > 100 µg/mL
MIC (Pr. mirabilis A9900): > 100 µg/mL
MIC (Pr. morganii A15153): > 100 µg/mL
MIC (Sal. enteritidis A9531): > 100 µg/mL
MIC (E. coli NIHJ): > 100 µg/mL
MIC (Ps. aeruginosa A9843): > 100 µg/mL
M.I.C. (S. aureus Russel; listed as 6x): 12.5 Mcg./ml.
MIC (S. aureus Russel): > 12.5 µg/mL
M.I.C. (S. aureus BX1633 A9606; S. aureus BX1633 A9606, listed as 6x): 25 Mcg./ml.
MIC (S. aureus BX1633 A9606): > 12.5 µg/mL
MIC (E. coli Juhl A15119): > 100 µg/mL
solubility at 4 h [1, 2]: 3300 µg/mL (≈ 9030 µM)
solubility at 4 h [1, 3]: 4100 µg/mL (≈ 11200 µM)
MIC (K. pneumoniae A15130): > 100 µg/mL
MIC (K. pneumoniae A9977): > 100 µg/mL
MIC (Str. pyogenes A9604): 1.25 to 2.5 µg/mL
MIC (E. coli ATCC 8739): > 100 µg/mL
MIC (Ser. marcescens A20019): > 100 µg/mL

MIC (Mycobacterium 607): > 100 µg/mL
MIC (Pr. mirabilis A9900): 50 µg/mL (≈ 118 µM)
MIC (Pr. morganii A15153): > 100 µg/mL
MIC (Sal. enteritidis A9531): 12.5 µg/mL (≈ 29.5 µM)
MIC (D. pneumoniae A9585): 0.16 to 0.31 µg/mL
MIC (E. coli NIHJ): 25 to 50 µg/mL (≈ 59 to 118 µM)
MIC (Ps. aeruginosa A9843): > 100 µg/mL
MIC (S. aureus Russel): 0.8 to 1.6 µg/mL (≈ 1.89 to 3.78 µM)
MIC (S. aureus BX1633 A9606): 3.1 µg/mL (≈ 7.32 µM)
MIC (E. coli Juhl A15119): 25 µg/mL (≈ 59 µM)
solubility at 4 h [1, 2]: 5300 µg/mL (≈ 12500 µM)
solubility at 4 h [1, 3]: 5400 µg/mL (≈ 12800 µM)
MIC (K. pneumoniae A15130): 12.5 to 50 µg/mL (≈ 29.5 to 118 µM)
MIC (S. aureus Smith A9537; SMITHA9537, S. aureus Smith A9537 + 50% serum): 3.1 µg/mL
MIC (S. aureus Smith A9537; SMITHA9537, S. aureus Smith A9537, Nutrient Broth): 0.8 µg/mL (≈ 1.89 µM)
MIC (K. pneumoniae A9977): 12.5 to 25 µg/mL (≈ 29.5 to 59 µM)
MIC (E. coli ATCC 8739): 25 µg/mL (≈ 59 µM)
MIC (Ser. marcescens A20019): > 100 µg/mL
Structure (SMILES): CC(=O)OCC1=C(C(=O)O)N2C(=O)C(NC(=O)CC3=C(CN)CCCC3)C2SC1 (stereo not drawn) [Example 16, 7-[α-(2-Aminomethy-1-cyclohexenyl)acetamido]cephalosporanic acid]

solubility (Water solubility): > 250000 µg/mL
Structure (SMILES): Cn1nnnc1SCC1=C(C(=O)O)N2C(=O)C(NC(=O)CC3=C(CN)CCCC3)C2SC1 (stereo not shown) [Example 15]

solubility at 4 h [1, 4]: 3000 µg/mL (≈ 5810 µM)
solubility at 4 h [1, 5]: 3000 µg/mL (≈ 5810 µM)
solubility at 4 h [1, 6]: 3000 µg/mL (≈ 5810 µM)
Structure (SMILES): NCC1=C(CC(=O)NC2C(=O)N3C(C(=O)O)=C(CSc4ccc5nnnn5n4)CSC23)CCCC1 (stereo not drawn) [Example 2, 7-[α-(2-aminomethyl-1-cyclohexenyl)acetamido]-3-(pyradazino[2,3-d]tetrazol-6-ylthiomethyl)-3-cephem-4-carboxylic acid]

solubility at 4 h [1, 4]: 16000 µg/mL (≈ 32500 µM)
solubility at 4 h [1, 5]: 16800 µg/mL (≈ 34200 µM)
solubility at 4 h [1, 6]: 16000 to 16800 µg/mL (≈ 32500 to 34200 µM)
Structure (SMILES): NCC1=C(CC(=O)NC2C(=O)N3C(C(=O)O)=C(CSc4ccc(O)nn4)CS[C@H]23)CCCC1 (stereo partly drawn) [Example 1, 7-[α-(2-aminomethyl-1-cyclohexenyl)acetamido]-3-(6-hydroxypyridazin-3-ylthiomethyl)-3-cephem-4-carboxylic acid]

Solubility, UV (UV-assay) ([1]; 0.1 M phosphate buffer (pH 7.0), 4 hr. at 25° C., UV-assay, 240 min): 3600 µg/mL (≈ 6820 µM)
solubility at 4 h [1, 4]: 3900 µg/mL (≈ 7390 µM)
solubility at 4 h [1, 5]: 4200 µg/mL (≈ 7960 µM)
solubility at 4 h [1, 6]: 3600 µg/mL (≈ 6820 µM)
Structure (SMILES): NCc1ccccc1CC(=O)NC1C(=O)N2C(C(=O)O)=C(CSc3ccc4nnc(O)n4n3)CSC12 (stereo not shown) [BB-S207, reference compound]

Structure (SMILES): Cn1nnnc1SCC1=C(C(=O)O)N2C(=O)C(NC(=O)Cc3ccccc3CN)C2SC1 (stereo not shown) [MR-S94, reference compound]
ED50 (E coli Juhl): 4.4 mg/kg
solubility at 4 h [1, 4]: 1900 µg/mL (≈ 4000 µM)
solubility at 4 h [1, 5]: 2000 µg/mL (≈ 4210 µM)
solubility at 4 h [1, 6]: 1900 µg/mL (≈ 4000 µM)
ED50 (S. aureus BX-1633): 3.4 mg/kg
